US11178823B2, “Systems and methods for using light energy to facilitate penetration of substances in plants” (priority 2014, dated 2021)

How the values were obtained:
HLB bacteria = experiment: PCR analysis for presence of HLB in leaves of lased and antimicrobial-treated citrus trees; assay type: in vivo; conditions: 2 fluid ounces per tree, 0-29 = HLB detected, 30 and above = no HLB detected; for Presence of HLB using PCR analysis, Sample A: lased and treated leaves; for Presence of HLB using PCR analysis, Sample B: leaves at furthest point from lased leaves, not lased or treated
Procedure: The following experimental data is provided to exemplarily illustrate various aspects of the inventive subject matter presented herein. More specifically, the data illustrates the surprising uptake of antimicrobials to effectively treat a plant. Citrus trees were tested in three groups consisting of a control group (trees 1-6), an antimicrobial plus surfactant group (trees 7-12), and an antimicrobial only group (trees 13-18). The trees in each group were lased and, in some instances, treated with an antimicrobial, and analyzed two weeks later to determine the amount of HLB present in the tree using Polymerase Chain Reaction (“PCR”) analysis. It should be noted that all the trees in this experiment had HLB at the beginning of the experiment. The antimicrobial used was oxytetracycline (FireLine™) that includes a surfactant (Tactit) for the antimicrobial plus surfactant group, and oxytetracycline without a surfactant for the antimicrobial only group. The laser parameters included a jump speed of 2000 mm/s, marking speed 850 mm/s, and marking intensity: 70%, and a pulse frequency of 15000 Hz.
The control group (trees 1-6) was lased, but not treated with any antimicrobials and/or surfactants. With the exception of one tree (tree 7) that was only lased, the antimicrobial plus surfactant group was lased and treated with an antimicrobial that comprised a surfactant. With the exception of one tree (tree 13) that was only lased, the antimicrobial only group was lased and treated with only an antimicrobial (with no surfactant). The trees in each group were lased on only one side of the tree (the side comprising the “A” samples). If an antimicrobial (with or without surfactant) was applied, such antimicrobial was applied to the side of the tree that was lased. The antimicrobials were prepared at 200 ppm, 500 ppm, 1000 ppm, 1500 ppm, and 2000 ppm in a 1 gallon volume. Only 2 fluid ounces per tree (10 fluid ounces per group of trees) was used of each concentration for this experiment.
After two weeks, leaves that were lased and, in some instances, treated with an antimicrobial were sampled and analyzed. Additionally, leaves located at the furthest point from the lased leaves (the side comprising the “B” samples), which were not directly lased and/or treated, were sampled and analyzed. Leaves were grinded and prepared for PCR analysis for detecting the presence of HLB. PCR determines if there is live HLB DNA. PCR analysis amplifies and copies small segments of DNA. It then yields enough sample DNA to run the analysis. With this experiment there are six trees per treatment group (control group, antimicrobial plus surfactant group, and antimicrobial only group). Each tree falls under two ranges for determining HLB content, values 29 and lower are considered HLB positive (greening) and values 30 and over are trees considered HLB negative (non-greening). If the analysis takes over 30 PCR cycles then it cannot find any target HLB DNA. If the analysis runs against the maximum of 40 PCR cycles then it becomes indeterminate and it could not find one copy of HLB. It should be noted that there could be numbers over “30” but still be no presence of HLB because there are only artifacts of dead HLB bacteria DNA in numbers over “30”.

[1] = Uptake and phloem movement of fluorescent test substances applied onto lased citrus leaves (fluorescent microscopy); assay type: in vivo
Description: To illustrate the effectiveness of the methods disclosed herein, a test substance was used to show the enhanced penetration through foliar application. Among test substances, phloem mobile compounds NBDG, a fluorescent analog of glucose (a natural sugar found in plants), and carboxyfluorescin-SE (a membrane permeable substance only fluorescent in live cells) were used in an experiment. Both substances were manually applied onto lased leaves (using a 13×39 dot indentation pattern 801) at a concentration of 5 mg/mL.
FIGS. 8A-8B were observed under fluorescent microscopy and FIG. 8B was taken 10 minutes after the application of 5 μL of NBDG.
Within 2 h, fluorescent NBDG was observed within the lateral veins of the lased leaves (shown in FIGS. 9A-9B) emerging from the application area. FIGS. 9A-9B are fluorescent micrographs of a portion of a lased citrus leaf. […] FIG. 9B is another image showing the NBDG in a minor veins 903 and main vein 905.
It should be appreciated that movement of the foliarly applied NBDG continued down the stem and towards the roots. […] FIGS. 11A-11B show bark sections of young trees. […] The distance between the lased leaves and bark segment 1103 was approximately 20 cm.

[2] = 200 ppm, without surfactant, tree 14, two weeks
[3] = 500 ppm, without surfactant, tree 15, two weeks
[4] = 1000 ppm, without surfactant, tree 16, two weeks
[5] = 2000 ppm, with surfactant (Tactit), tree 12, two weeks

| SMILES | Presence of HLB using PCR analysis, Sample A (HLB bacteria; 200 ppm, with surfactant (Tactit), tree 8, two weeks after treatment) | Presence of HLB using PCR analysis, Sample B (HLB bacteria; 200 ppm, with surfactant (Tactit), tree 8, two weeks) | Presence of HLB using PCR analysis, Sample A (HLB bacteria; [2]) | Presence of HLB using PCR analysis, Sample B (HLB bacteria; [2]) | Presence of HLB using PCR analysis, Sample A (HLB bacteria; 500 ppm, with surfactant (Tactit), tree 9, two weeks) | Presence of HLB using PCR analysis, Sample A (HLB bacteria; [3]) | Presence of HLB using PCR analysis, Sample B (HLB bacteria; [3]) | Presence of HLB using PCR analysis, Sample A (HLB bacteria; [4]) | Presence of HLB using PCR analysis, Sample B (HLB bacteria; [4]) | Presence of HLB using PCR analysis, Sample B (HLB bacteria; 1500 ppm, with surfactant (Tactit), tree 11, two weeks) | Presence of HLB using PCR analysis, Sample B (HLB bacteria; 1500 ppm, without surfactant, tree 17, two weeks) | Presence of HLB using PCR analysis, Sample A (HLB bacteria; [5]) | Presence of HLB using PCR analysis, Sample B (HLB bacteria; [5]) | Presence of HLB using PCR analysis, Sample B (HLB bacteria; 2000 ppm, without surfactant, tree 18, two weeks) | Uptake into un-lased control leaf (fluorescence) ([1]; applied to the surface of un-lased leaves) | Time until fluorescence observed in the phloem of bark tissue ([1]; bark approximately 20 cm from the treated lased leaf, young trees) | Time until fluorescence observed within the lateral veins of the lased leaves ([1]; lased citrus leaf, 5 mg/mL, emerging from the application area) | Movement in the leaf four hours after application ([1]; lased citrus leaf, 5 mg/mL, four hours after application) | Uptake into lased leaf (fluorescence) ([1]; lased citrus leaf, 13×39 dot indentation pattern, 5 mg/mL, 5 μL, 10 minutes after application) |
| --- | --- | --- | --- | --- | --- | --- | --- | --- | --- | --- | --- | --- | --- | --- | --- | --- | --- | --- | --- |
| CN(C)[C@@H]1C(O)=C(C(N)=O)C(=O)[C@@]2(O)C(O)=C3C(=O)c4c(O)cccc4[C@@](C)(O)[C@H]3[C@H](O)[C@@H]12 [oxytetracycline] | 30.6 | 33.5 | 27.0 | 26.1 | 35.4 | 34.7 | 26.6 | 37.8 | 28.7 | 36.8 | 26.2 | 37.6 | 36.1 | 27.6 |  |  |  |  |  |
| O=[N+]([O-])c1ccc(N[C@H]2C(O)O[C@H](CO)[C@@H](O)[C@@H]2O)c2nonc12 (stereo partly shown) [NBDG] |  |  |  |  |  |  |  |  |  |  |  |  |  |  | no fluorescence | ≤ 8 h | ≤ 2 h | reached and passed the base of the petiole | spread of fluorescence within the lased area |
